Assay results as given in patent publication US20120122860A1, “SOLID FORMS OF SULFONAMIDES AND AMINO ACIDS” (Plexxikon, Inc., priority 2009, published 2012).

Columns and labels:
[1] = target: B-Raf V600E (Homo sapiens, UniProt P15056, V600E); assay: Kinase activity assay, B-Raf V600E; type: biochemical; conditions: read-out: activity toward kinase B-Raf V600E, IC50
[2] = target: Src (Homo sapiens, UniProt P12931); assay: Kinase activity assay, Src
[3] = target: C-Raf (Homo sapiens, UniProt P04049); assay: Kinase activity assay, C-Raf
Sequence of C-Raf (P04049 whole entry): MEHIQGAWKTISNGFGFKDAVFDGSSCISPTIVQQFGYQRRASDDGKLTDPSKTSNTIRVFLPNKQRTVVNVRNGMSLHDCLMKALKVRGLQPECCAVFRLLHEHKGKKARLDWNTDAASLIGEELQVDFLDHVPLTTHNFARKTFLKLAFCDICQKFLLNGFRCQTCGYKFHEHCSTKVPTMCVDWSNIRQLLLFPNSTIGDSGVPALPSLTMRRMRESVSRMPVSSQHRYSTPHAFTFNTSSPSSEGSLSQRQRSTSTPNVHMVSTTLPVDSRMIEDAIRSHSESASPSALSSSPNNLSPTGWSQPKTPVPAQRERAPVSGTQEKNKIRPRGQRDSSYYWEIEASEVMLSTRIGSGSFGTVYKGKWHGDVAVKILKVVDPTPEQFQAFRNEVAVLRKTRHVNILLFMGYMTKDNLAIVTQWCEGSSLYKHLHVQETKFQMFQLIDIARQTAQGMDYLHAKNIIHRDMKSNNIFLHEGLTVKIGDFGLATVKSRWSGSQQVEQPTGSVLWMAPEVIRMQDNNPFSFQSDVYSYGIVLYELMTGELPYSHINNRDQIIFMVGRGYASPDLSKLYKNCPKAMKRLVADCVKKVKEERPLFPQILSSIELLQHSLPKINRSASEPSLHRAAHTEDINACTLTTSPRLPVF

[4] = target: B-Raf (Homo sapiens, UniProt P15056); assay: Kinase activity assay, B-Raf; type: biochemical; conditions: read-out: activity toward kinase B-Raf, IC50
Sequence of B-Raf (P15056 whole entry): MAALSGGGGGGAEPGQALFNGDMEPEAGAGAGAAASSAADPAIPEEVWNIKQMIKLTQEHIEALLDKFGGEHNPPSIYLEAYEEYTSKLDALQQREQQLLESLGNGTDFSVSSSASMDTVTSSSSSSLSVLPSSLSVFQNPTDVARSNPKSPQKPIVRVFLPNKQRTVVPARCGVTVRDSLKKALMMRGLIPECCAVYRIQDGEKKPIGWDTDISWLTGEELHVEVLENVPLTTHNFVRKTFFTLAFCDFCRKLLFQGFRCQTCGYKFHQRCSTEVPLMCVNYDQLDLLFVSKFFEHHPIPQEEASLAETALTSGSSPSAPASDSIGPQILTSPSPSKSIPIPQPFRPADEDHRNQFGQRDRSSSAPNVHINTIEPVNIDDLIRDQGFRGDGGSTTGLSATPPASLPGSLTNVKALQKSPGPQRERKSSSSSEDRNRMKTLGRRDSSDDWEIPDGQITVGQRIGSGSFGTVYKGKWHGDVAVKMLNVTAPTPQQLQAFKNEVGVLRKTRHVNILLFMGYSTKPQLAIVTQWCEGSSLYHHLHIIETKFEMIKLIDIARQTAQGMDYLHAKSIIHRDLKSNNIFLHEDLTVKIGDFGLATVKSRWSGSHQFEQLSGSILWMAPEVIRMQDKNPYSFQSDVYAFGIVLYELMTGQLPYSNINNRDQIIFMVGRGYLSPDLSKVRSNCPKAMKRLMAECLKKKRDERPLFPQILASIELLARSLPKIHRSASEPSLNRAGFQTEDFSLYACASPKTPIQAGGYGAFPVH

[5] = target: Kdr (Homo sapiens, UniProt P35968); assay: Kinase activity assay, Kdr
Sequence of Kdr (P35968 20-1356): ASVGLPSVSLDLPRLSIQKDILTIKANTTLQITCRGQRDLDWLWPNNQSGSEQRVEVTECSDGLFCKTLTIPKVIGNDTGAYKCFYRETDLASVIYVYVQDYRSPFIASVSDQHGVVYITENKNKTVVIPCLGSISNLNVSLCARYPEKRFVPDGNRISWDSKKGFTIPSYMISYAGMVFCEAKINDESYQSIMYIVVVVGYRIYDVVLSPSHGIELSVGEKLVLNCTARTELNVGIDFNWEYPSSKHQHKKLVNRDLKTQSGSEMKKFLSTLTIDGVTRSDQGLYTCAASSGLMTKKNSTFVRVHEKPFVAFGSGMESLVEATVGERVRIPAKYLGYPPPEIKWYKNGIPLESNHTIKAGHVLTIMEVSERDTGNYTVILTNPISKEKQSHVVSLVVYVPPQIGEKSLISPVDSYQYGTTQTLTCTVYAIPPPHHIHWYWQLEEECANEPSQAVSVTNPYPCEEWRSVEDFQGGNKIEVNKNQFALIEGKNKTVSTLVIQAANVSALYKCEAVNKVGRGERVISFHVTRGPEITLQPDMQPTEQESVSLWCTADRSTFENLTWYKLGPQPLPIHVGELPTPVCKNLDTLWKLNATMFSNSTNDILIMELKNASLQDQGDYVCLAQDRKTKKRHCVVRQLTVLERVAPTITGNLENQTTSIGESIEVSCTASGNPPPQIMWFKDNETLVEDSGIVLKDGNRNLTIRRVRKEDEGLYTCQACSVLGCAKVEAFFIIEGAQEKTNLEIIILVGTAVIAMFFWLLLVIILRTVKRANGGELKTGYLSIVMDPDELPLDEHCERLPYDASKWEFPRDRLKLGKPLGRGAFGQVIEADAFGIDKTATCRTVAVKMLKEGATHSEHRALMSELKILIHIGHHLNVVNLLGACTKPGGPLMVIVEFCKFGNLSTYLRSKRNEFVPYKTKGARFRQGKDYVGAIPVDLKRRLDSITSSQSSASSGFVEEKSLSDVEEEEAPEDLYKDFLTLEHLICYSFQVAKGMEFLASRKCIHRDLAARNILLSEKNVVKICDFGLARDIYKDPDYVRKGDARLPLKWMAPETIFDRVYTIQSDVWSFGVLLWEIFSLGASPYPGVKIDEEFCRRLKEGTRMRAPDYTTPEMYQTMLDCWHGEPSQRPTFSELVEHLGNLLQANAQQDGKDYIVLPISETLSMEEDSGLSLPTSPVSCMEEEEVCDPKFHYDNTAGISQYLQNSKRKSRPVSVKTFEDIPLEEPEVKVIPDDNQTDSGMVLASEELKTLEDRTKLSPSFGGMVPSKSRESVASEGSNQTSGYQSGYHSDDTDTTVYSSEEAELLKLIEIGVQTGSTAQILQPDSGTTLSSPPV

[6] = target: Kit (Homo sapiens, UniProt P10721); assay: Kinase activity assay, Kit
Sequence of Kit (P10721 26-976): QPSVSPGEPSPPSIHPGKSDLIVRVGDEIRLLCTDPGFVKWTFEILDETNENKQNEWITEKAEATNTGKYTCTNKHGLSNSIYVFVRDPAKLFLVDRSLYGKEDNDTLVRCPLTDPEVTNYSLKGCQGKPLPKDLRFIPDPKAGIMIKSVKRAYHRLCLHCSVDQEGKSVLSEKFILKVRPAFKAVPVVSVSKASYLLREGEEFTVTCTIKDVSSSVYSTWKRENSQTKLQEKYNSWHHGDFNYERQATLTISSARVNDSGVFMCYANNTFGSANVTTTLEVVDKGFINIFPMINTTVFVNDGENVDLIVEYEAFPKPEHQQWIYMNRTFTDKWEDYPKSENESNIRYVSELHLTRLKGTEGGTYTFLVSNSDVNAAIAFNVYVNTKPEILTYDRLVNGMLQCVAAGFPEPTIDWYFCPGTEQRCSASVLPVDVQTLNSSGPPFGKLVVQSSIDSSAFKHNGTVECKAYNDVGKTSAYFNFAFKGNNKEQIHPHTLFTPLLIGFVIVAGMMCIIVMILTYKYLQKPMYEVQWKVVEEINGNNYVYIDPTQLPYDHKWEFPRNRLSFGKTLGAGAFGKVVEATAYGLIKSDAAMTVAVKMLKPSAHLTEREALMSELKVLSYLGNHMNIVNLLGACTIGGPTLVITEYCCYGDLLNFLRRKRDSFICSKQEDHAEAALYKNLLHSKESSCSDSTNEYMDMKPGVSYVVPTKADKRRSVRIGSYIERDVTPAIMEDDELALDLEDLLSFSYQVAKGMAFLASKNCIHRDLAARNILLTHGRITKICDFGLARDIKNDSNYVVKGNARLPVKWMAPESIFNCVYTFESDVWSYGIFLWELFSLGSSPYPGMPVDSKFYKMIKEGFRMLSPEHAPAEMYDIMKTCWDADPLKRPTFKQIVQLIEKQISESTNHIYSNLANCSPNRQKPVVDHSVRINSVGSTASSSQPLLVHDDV

[7] = target: Fms (Homo sapiens, UniProt P07333); assay: Kinase activity assay, Fms

Sequence of B-Raf V600E (P15056 whole entry V600E): as the sequence (P15056 whole entry) above, with V600E counted along it
Sequence of Src (P12931 whole entry): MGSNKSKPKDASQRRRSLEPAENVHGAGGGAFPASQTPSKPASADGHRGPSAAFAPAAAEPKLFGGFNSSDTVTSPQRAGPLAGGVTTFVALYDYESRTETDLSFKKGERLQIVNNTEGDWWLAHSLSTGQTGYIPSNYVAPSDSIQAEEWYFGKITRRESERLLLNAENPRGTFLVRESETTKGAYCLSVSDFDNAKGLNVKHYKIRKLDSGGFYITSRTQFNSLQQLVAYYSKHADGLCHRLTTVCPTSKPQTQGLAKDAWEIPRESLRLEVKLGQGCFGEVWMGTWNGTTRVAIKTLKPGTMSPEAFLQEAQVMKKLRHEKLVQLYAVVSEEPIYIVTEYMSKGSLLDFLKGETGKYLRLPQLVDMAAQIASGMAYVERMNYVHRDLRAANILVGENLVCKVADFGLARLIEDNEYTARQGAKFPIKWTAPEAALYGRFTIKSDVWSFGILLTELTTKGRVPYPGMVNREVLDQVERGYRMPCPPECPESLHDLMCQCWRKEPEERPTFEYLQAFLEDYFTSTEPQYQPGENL

| Compound | IC50 [1] [µM] | IC50 [2] [µM] | IC50 [3] [µM] | IC50 [4] [µM] | IC50 [5] [µM] | IC50 [6] [µM] | IC50 [7] [µM] |
| --- | --- | --- | --- | --- | --- | --- | --- |
| COc1ccnc2[nH]cc(C(=O)c3c(F)ccc(NS(=O)(=O)c4ccc(F)cc4F)c3F)c12 [P-2032, N-[2,4-Difluoro-3-(4-methoxy-1H-pyrrolo[2,3-b]pyridine-3-carbonyl)-phenyl]-2,4-difluoro-benzenesulfonamide] | ≤ 10 | ≤ 10 | ≤ 10 | ≤ 10 | ≤ 10 | ≤ 10 | – |
| Cc1cnc2[nH]cc(C(=O)c3cccc(NS(=O)(=O)c4ccc(C(F)(F)F)cc4)c3F)c2c1 [P-2059, N-[2-Fluoro-3-(5-methyl-1H-pyrrolo[2,3-b]pyridine-3-carbonyl)-phenyl]-4-trifluoromethyl-benzenesulfonamide] | ≤ 10 | ≤ 10 | ≤ 10 | ≤ 10 | ≤ 10 | – | – |
| COc1ccnc2[nH]cc(C(=O)c3c(F)ccc(NS(=O)(=O)c4cccnc4)c3F)c12 [P-2073, Pyridine-3-sulfonic acid [2,4-difluoro-3-(4-methoxy-1H-pyrrolo[2,3-b]pyridine-3-carbonyl)-phenyl]-amide] | ≤ 10 | ≤ 10 | ≤ 10 | ≤ 10 | – | – | – |
| CCCS(=O)(=O)Nc1ccc(F)c(C(=O)c2c[nH]c3ncc(-c4ccc(Cl)nc4)cc23)c1F [P-2154, Propane-1-sulfonic acid {3-[5-(6-chloro-pyridin-3-yl)-1H-pyrrolo[2,3-b]pyridine-3-carbonyl]-2,4-difluoro-phenyl}-amide] | ≤ 10 | ≤ 10 | ≤ 10 | ≤ 10 | ≤ 10 | – | – |
| CCCS(=O)(=O)Nc1ccc(F)c(C(=O)c2c[nH]c3ncc(-c4c(C)noc4C)cc23)c1F [P-2156, Propane-1-sulfonic acid {3-[5-(3,5-dimethyl-isoxazol-4-yl)-1H-pyrrolo[2,3-b]pyridine-3-carbonyl]-2,4-difluoro-phenyl}-amide] | ≤ 10 | ≤ 10 | – | – | ≤ 10 | – | – |
| CCCS(=O)(=O)Nc1ccc(F)c(C(=O)c2c[nH]c3ncc(-c4ccc(Cl)c(C(F)(F)F)c4)cc23)c1F [P-2171, Propane-1-sulfonic acid {3-[5-(4-chloro-3-trifluoromethyl-phenyl)-1H-pyrrolo[2,3-b]pyridine-3-carbonyl]-2,4-difluoro-phenyl}-amide] | ≤ 10 | ≤ 10 | – | ≤ 10 | ≤ 10 | – | – |
| CCCS(=O)(=O)Nc1ccc(F)c(C(=O)c2c[nH]c3ncc(-c4c(-c5ccccc5)noc4C)cc23)c1F [P-2191, Propane-1-sulfonic acid {2,4-difluoro-3-[5-(5-methyl-3-phenyl-isoxazol-4-yl)-1H-pyrrolo[2,3-b]pyridine-3-carbonyl]-phenyl}-amide] | ≤ 10 | ≤ 10 | – | ≤ 10 | ≤ 10 | – | – |
| CCCS(=O)(=O)Nc1ccc(F)c(C(=O)c2c[nH]c3ncc(-c4cc(C)nn4C)cc23)c1F [P-2195, Propane-1-sulfonic acid {3-[5-(2,5-dimethyl-2H-pyrazol-3-yl)-1H-pyrrolo[2,3-b]pyridine-3-carbonyl]-2,4-difluoro-phenyl}-amide] | ≤ 10 | ≤ 10 | – | ≤ 10 | ≤ 10 | ≤ 10 | – |
| CCCS(=O)(=O)Nc1ccc(F)c(C(=O)c2c[nH]c3ncc(/C=C/C(=O)OC)cc23)c1F [P-2225, (E)-3-{3-[2,6-Difluoro-3-(propane-1-sulfonylamino)-benzoyl]-1H-pyrrolo[2,3-b]pyridin-5-yl}-acrylic acid methyl ester] | ≤ 10 | ≤ 10 | ≤ 10 | ≤ 10 | ≤ 10 | – | – |
| CCCS(=O)(=O)Nc1ccc(F)c(C(=O)c2c[nH]c3ncc(C(=O)N(C)C)cc23)c1F [P-2237, 3-[2,6-Difluoro-3-(propane-1-sulfonylamino)-benzoyl]-1H-pyrrolo[2,3-b]pyridine-5-carboxylic acid dimethyl amide] | – | ≤ 10 | – | ≤ 10 | ≤ 10 | – | – |
| COc1ccnc2[nH]cc(C(=O)c3c(F)ccc(NS(=O)(=O)C(C)C)c3F)c12 [P-2280, Propane-2-sulfonic acid [2,4-difluoro-3-(4-methoxy-1H-pyrrolo[2,3-b]pyridine-3-carbonyl)-phenyl]-amide] | ≤ 10 | ≤ 10 | ≤ 10 | ≤ 10 | ≤ 10 | – | – |
| CCCC(C)S(=O)(=O)Nc1ccc(F)c(C(=O)c2c[nH]c3ncc(Cl)cc23)c1F (centres unmarked) [P-2311, Pentane-2-sulfonic acid [3-(5-chloro-1H-pyrrolo[2,3-b]pyridine-3-carbonyl)-2,4-difluoro-phenyl]-amide] | ≤ 10 | ≤ 10 | ≤ 10 | – | ≤ 10 | ≤ 10 | – |
| O=C(c1c(F)ccc(NS(=O)(=O)CCC(F)(F)F)c1F)c1c[nH]c2ncc(-c3ccc(Cl)cc3)cc12 [P-2325, 3,3,3-Trifluoro-propane-1-sulfonic acid {3-[5-(4-chloro-phenyl)-1H-pyrrolo[2,3-b]pyridine-3-carbonyl]-2,4-difluoro-phenyl}-amide] | – | ≤ 10 | – | – | – | ≤ 10 | – |
| COc1ccnc2[nH]cc(C(=O)c3c(F)ccc(NS(=O)(=O)CC(F)(F)F)c3F)c12 [P-2340, 2,2,2-Trifluoro-ethanesulfonic acid [2,4-difluoro-3-(4-methoxy-1H-pyrrolo[2,3-b]pyridine-3-carbonyl)-phenyl]-amide] | ≤ 10 | ≤ 10 | ≤ 10 | ≤ 10 | – | – | – |
| O=C(c1c(F)ccc(NS(=O)(=O)c2ccc(C(F)(F)F)nc2)c1F)c1c[nH]c2ncc(Cl)cc12 [P-2481, 6-Trifluoromethyl-pyridine-3-sulfonic acid [3-(5-chloro-1H-pyrrolo[2,3-b]pyridine-3-carbonyl)-2,4-difluoro-phenyl]-amide] | – | ≤ 10 | ≤ 10 | ≤ 10 | ≤ 10 | – | – |

The remaining lines, values ahead:

| IC50 [1] [µM] | IC50 [2] [µM] | IC50 [3] [µM] | IC50 [4] [µM] | IC50 [5] [µM] | IC50 [6] [µM] | IC50 [7] [µM] | Compound |
| --- | --- | --- | --- | --- | --- | --- | --- |
| ≤ 10 | ≤ 10 | ≤ 10 | ≤ 10 | ≤ 10 | ≤ 10 | – | N#Cc1cnc2[nH]cc(C(=O)c3cccc(NS(=O)(=O)c4ccc(F)cc4F)c3F)c2c1 [P-2055, N-[3-(5-Cyano-1H-pyrrolo[2,3-b]pyridine-3-carbonyl)-2-fluoro-phenyl]-2,4-difluoro-benzenesulfonamide] |
| ≤ 10 | – | ≤ 10 | ≤ 10 | ≤ 10 | ≤ 10 | – | O=C(c1cccc(NS(=O)(=O)c2ccc(C(F)(F)F)cc2)c1F)c1c[nH]c2ncc(Cl)cc12 [P-2058, N-[3-(5-Chloro-1H-pyrrolo[2,3-b]pyridine-3-carbonyl)-2-fluoro-phenyl]-4-trifluoromethyl-benzenesulfonamide] |
| – | – | – | – | ≤ 10 | ≤ 10 | ≤ 10 | O=C(c1cc(NS(=O)(=O)c2ccc(F)cc2)ccc1F)c1c[nH]c2ncc(Cl)cc12 [P-2107, N-[3-(5-Chloro-1H-pyrrolo[2,3-b]pyridine-3-carbonyl)-4-fluoro-phenyl]-4-fluoro-benzenesulfonamide] |
| – | – | – | – | ≤ 10 | ≤ 10 | ≤ 10 | O=C(c1cccc(NS(=O)(=O)c2ccc(F)cc2)c1)c1c[nH]c2ncc(Cl)cc12 [P-2121, N-[3-(5-Chloro-1H-pyrrolo[2,3-b]pyridine-3-carbonyl)-phenyl]-4-fluoro-benzenesulfonamide] |
| – | – | – | – | ≤ 10 | ≤ 10 | ≤ 10 | O=C(c1cccc(NS(=O)(=O)c2cccc(C(F)(F)F)c2)c1)c1c[nH]c2ncc(Cl)cc12 [P-2122, N-[3-(5-Chloro-1H-pyrrolo[2,3-b]pyridine-3-carbonyl)-phenyl]-3-trifluoromethyl-benzenesulfonamide] |
| – | – | – | ≤ 10 | ≤ 10 | ≤ 10 | – | O=C(c1cccc(NS(=O)(=O)c2ccc(C(F)(F)F)cc2)c1)c1c[nH]c2ncc(Cl)cc12 [P-2126, N-[3-(5-Chloro-1H-pyrrolo[2,3-b]pyridine-3-carbonyl)-phenyl]-4-trifluoromethyl-benzenesulfonamide] |
| ≤ 10 | – | ≤ 10 | – | ≤ 10 | ≤ 10 | – | COc1ccnc2[nH]cc(C(=O)c3c(F)ccc(NS(C)(=O)=O)c3F)c12 [P-2293, N-[2,4-Difluoro-3-(4-methoxy-1H-pyrrolo[2,3-b]pyridine-3-carbonyl)-phenyl]-methanesulfonamide] |
| ≤ 10 | – | – | – | ≤ 10 | – | ≤ 10 | CN(C)S(=O)(=O)Nc1cccc(C(=O)c2c[nH]c3ncc(-c4ccc(Cl)cc4)cc23)c1F [P-2423, N,N-dimethylamino-sulfonic acid {3-[5-(4-chloro-phenyl)-1H-pyrrolo[2,3-b]pyridine-3-carbonyl]-2-fluoro-phenyl}-amide] |
| ≤ 10 | – | ≤ 10 | ≤ 10 | ≤ 10 | – | ≤ 10 | O=C(c1cccc(NS(=O)(=O)N2CCCC2)c1F)c1c[nH]c2ncc(-c3ccc(Cl)cc3)cc12 [P-2425, Pyrrolidine-1-sulfonic acid {3-[5-(4-chloro-phenyl)-1H-pyrrolo[2,3-b]pyridine-3-carbonyl]-2-fluoro-phenyl}-amide] |
| – | – | – | – | ≤ 10 | – | ≤ 10 | O=C(c1cc(NS(=O)(=O)C2CC2)ccc1F)c1c[nH]c2ncccc12 [P-2439, Cyclopropanesulfonic acid [4-fluoro-3-(1H-pyrrolo[2,3-b]pyridine-3-carbonyl)-phenyl]-amide] |
